Read-outs that look alike come from different tables or passages of the source.
What was measured:
[1] = system: zebrafish embryos; assay: In vivo cardiotoxicity in zebrafish embryos; settings: treated 2 to 3 dpf; CYS 20 µM; terfenadine 10, 20 µM
Description: (§1) Handling of adult zebrafish and experiments with zebrafish embryos were performed in accordance with the EU directive 2010/63/EU and the German Animal Welfare Act (§11 Abs. 1 TierSchG). An automatic aquatic eco-system (PENTAIR, Apoka, UK) was used for zebrafish housing. Adult zebrafish were mated pairwise in our zebrafish facility after one night in the mating cages (light/dark cycle: 14 h/10 h). The eggs were collected after 2 h of mating and placed in a petri dish with fish water (pH 7.36 ± 0.08, conductivity: 800 ± 50 µs). The eggs were washed with 0.3x Danieau´s medium (17 mM NaCl, 0.2 mM KCl, 0.12 mM MgSO4, 0.18 mM Ca(NO3)2, 1.5 mM HEPES, pH 7.1–7.3, and 1.2 µM methylene blue). 300 eggs were placed per Petri dish and stored in the incubator at 28 °C overnight. 24 h post-mating, the unfertilized eggs were discarded. The 0.3x Danieau´s media in the petri dishes was replaced every 24 h and embryos with developmental issues were euthanized using ice water. […]
Embryos were prepared as described above. […] Afterwards, embryos were anesthetized with tricaine added to the media (40 µg/mL, 0.004% (w/v)) and videos were recorded using a stereomicroscope (1.25 × magnification) (Stemi 508, Zeiss) with Media Recorder (version 4.0) and analyzed via DanioScope software (version 1.2.208, Noldus). […]

[2] = system: zebrafish embryos [Tg(fabp10a:DsRed; elaA:EGFP)]; assay: In vivo hepatotoxicity in zebrafish embryos; settings: soaking 3 to 5 dpf; valproic acid 20, 40 µg/mL
Description: as §1, with “overnight.” for “overnight. 24 h post-mating, the unfertilized eggs were discarded. The 0.3x Danieau´s media in the petri dishes was replaced every 24 h and embryos with developmental issues were euthanized using ice water.”
Zebrafish embryos [Tg(fabp10a:DsRed; elaA:EGFP)] were prepared as described above. […] After 48 h treatment, the embryos were checked via a fluorescence stereomicroscope (M205 FA, Leica) with attention to liver degeneration. Fluorescence images were taken after anesthetizing the embryos with tricaine (40 µg/mL) and placing them laterally (excitation: 558 nm, emission 583 nm, 35× magnification). […] The liver size was calculated using ImageJ software (format: 8 bit, threshold: 40–255, binary, particle size: 10.0-infinite). […] The relative liver sizes of treated embryos were calculated accordingly and normalized to the control group. […]

[3] = system: HCT116 (human, colon); assay: MTT cytotoxicity HCT116; assay type: cell-based; settings: HCT-116, 72 h, n = 3
Description: (§2) All cell types were cultivated at 37 °C with 5% CO2. HepG2, HEK293, HCT116, CHO-K1, HeLa-CCL-2 and Huh-7.5 were purchased from ATCC. The respective cell media (Gibco) were supplemented with 10% FBS (Gibco) before usage. Cells were used between passages #5 and #30. To obtain biological repeats, cells were split separately for at least two passages.
(§3) Cells were washed with PBS and 0.5 mL trypsin was added. Afterwards, cells were incubated for 5 min before adding 10 mL medium containing 10% FBS. Per well, 120 µL cell suspension (5 × 10^4 cells/mL) was seeded in transparent 96-well cell bind plates and incubated for 2 h (37 °C, 5% CO2). A dilution series (1:3) of test compounds was prepared in respective media containing 10% FBS and added (60 µL) to the prepared cell plate. Cells were incubated for a further 72 h (37 °C, 5% CO2). Next, 20 µL MTT (5 mg/mL in PBS) was added to each well and incubated for 2 h (37 °C, 5% CO2). The wells were emptied and 100 µL isopropanol/10 N HCl (1000:4) per well was added.
(§4) The plates were analyzed by measuring the absorbance at 570 nm (plate reader Infinite® 200 Pro, Tecan). After normalization of data to the respective solvent controls, the calculated percentage of growth inhibition was plotted using GraphPad Prism software (version 10.0.2).

[4] = system: HEK293 (human, kidney); assay: MTT cytotoxicity HEK293; assay type: cell-based
Description: as §2, §3, §4

[5] = system: CHO-K1 (hamster, ovary); assay: MTT cytotoxicity CHO-K1; assay type: cell-based; settings: CHO-K1, 72 h, n = 3
Description: as §2, §3, §4

[6] = Metabolic stability in mouse hepatocytes; assay type: in vitro ADME; settings: mouse, pooled mouse hepatocytes; 1 μM, 0.25 × 10^6 cells/mL; read-out: Mouse Hepatocytes t1/2
Description: For the evaluation of combined phase I and phase II metabolic stability, the compound (1 μM) was incubated with 0.25 × 10^6 cells/mL of pooled mouse hepatocytes (Xenotech, Kansas City, USA). Cells were thawed in Leibovitz’s L-15 medium without phenol red (ThermoFisher Scientific, Waltham, USA). Briefly, cells were transferred into 50 mL of medium, followed by centrifugation at 55 g for 6 min. Supernatant was discarded, and the cell count was determined after gently resuspending the cell pellet in 1mL of medium. Hepatocytes were diluted to 0.5 × 10^6 cells/mL and incubated at 37 °C, 700 rpm for 10 min, to achieve the desired final cell count after addition of an equal volume of test compounds in medium, leading to a final test concentration of 1 µM at 1% DMSO. […] For the determination of metabolism in the presence of cobicistat, this drug was added together with test compounds in the desired concentration range. The metabolic stability of testosterone, verapamil, ketoconazole and 7-hydroxycoumarine were determined in parallel to confirm the enzymatic activity of mouse hepatocytes. […] Concentration of the remaining test compound at the different time points was analyzed by HPLC-MS/MS (Vanquish Flex coupled to a TSQ Altis Plus, Thermo Fisher, Dreieich, Germany) and used to determine half-life (t1/2). Intrinsic clearance was calculated as follows:2 CLintµL/min×10^6cells=Incubation volumeµL×ln(2)/Cells in incubation mixture[10^6]×t1/2
For metabolite identification studies, test compounds were incubated at 10 µM final concentration and samples were analyzed using HPLC-HRMS (Ultimate 3000 coupled to a Q Exactive Focus, Thermo Fisher, Dreieich, Germany). […] Blank samples using DMSO were run in parallel for background subtraction. Sample processing for metabolite identification was performed using Compound Discoverer 3.2 (Thermo Fisher, Dreieich, Germany). Metabolites were identified based on mass shifts and feasibility of the metabolic reaction, also in view of MS peak intensities over time.

[7] = system: Huh-7.5 (human, liver); assay: MTT cytotoxicity Huh-7.5; assay type: cell-based; settings: Huh7.5, 72 h, n = 3
Description: as §2, §3, §4

[8] = system: E. coli gyrase; settings: cited from earlier work
[9] = system: HepG2 (human, liver); assay: MTT cytotoxicity HepG2; assay type: cell-based; settings: 72 h, n = 3
Description: as §2, §3, §4

[10] = system: U2OS (human, osteosarcoma); assay: MTT cytotoxicity U2OS; assay type: cell-based; settings: 72 h, n = 3
Description: as §3, §4

[11] = system: HeLa (human, cervix); assay: MTT cytotoxicity HeLa; assay type: cell-based; settings: 72 h, n = 3
Description: as §2, §3, §4

[12] = system: U-2 OS cells; assay: Mitochondrial superoxide formation (MitoSOX Red); assay type: cell-based, human; settings: n = 6
Description: CYS was tested for its potential to induce oxidative stress in U-2 OS cells. Therefore, 120 µL of a cell suspension in McCoy’s (+10% FBS) containing 5 × 10^4 cells/mL were seeded into black 96-well imaging plate (BD Falcon). The plates were incubated for two days (37 °C, 5% CO2) until the cells reached approximately 70% confluence. Subsequently, the cells were washed with HBSS buffer, prior to adding CYS (20 µM) and the ROS inducer menadione (50 µM) as positive control, along with the staining solution (HBSS, calcium, magnesium, 5 µM MitoSOX red and 10 µg/mL Hoechst (Thermo)). To check for ROS protective properties, menadione (50 µM) was added directly to the staining solution. […] Afterwards, the cells were washed twice with HBSS. The cells were imaged using an automated fluorescence microscope (Celldiscoverer 7, Zeiss) (excitation: […]) to analyze the fluorescence intensity of the superoxide tracker MitoSOX red. The experiment was carried out with six replicates per condition. Quantification was done by high-content image analysis using the ZEN software (version 3.4, blue edition, Zeiss). Data presentation was done using GraphPad Prism (version 10.0.3) with ordinary one-way ANOVA including multiple comparisons to the control group for statistical analysis of the sample without ROS induction via menadione in the staining solution. Multiple unpaired t test was used to compare samples for ROS protective properties, which were incubated with menadione in the staining solution.

[13] = system: CHO-K1 cells; assay: Micronucleus test; settings: 24 h; mitomycin C 0.05 µM, doxorubicin 0.05 µM, etoposide 0.25 µM; CYS 20 µM, 100 µM for Cysto-180
[14] = system: CHO-K1 cells

## CC(C)(C)c1ccc(C(O)CCCN2CCC(C(O)(c3ccccc3)c3ccccc3)CC2)cc1 (centres unmarked) [terfenadine]
[1]
  heartbeat rate: significant and concentration-dependent decrease of beats per minute
  pericardial area: significant, concentration-dependent increase in pericardial area

## CCCC(CCC)C(=O)O [Valproic acid, valproic acid]
[2]
  liver size: significant liver size reduction

## CC(C)Oc1c(NC(=O)c2ccc(NC(=O)[C@H](CC(N)=O)NC(=O)c3ccc(NC(=O)c4ccc(C#N)cc4)cc3)cc2)ccc(C(=O)Nc2ccc(C(=O)O)cc2)c1O [CN-DM-861]
[3]
  IC50: > 20000 nM
[4]; HEK293, 72 h, read-out: IC50 HEK293 (human, kidney)
  IC50: > 20000 nM
[5]
  IC50: > 20000 nM
[6]
  half-life at 1 µM: 1.57 ± 0.25 h
[7]
  IC50: > 20000 nM
[8]
  IC50: […]
[9]
  IC50: > 20000 nM
[10]
  IC50: > 20000 nM
[11]
  IC50: > 37000 nM
[12]; 20 µM, MitoSOX Red, no menadione
  basal superoxide radical levels vs DMSO control: no ROS induction at the maximum soluble concentration
[12]; CYS 20 µM + menadione 50 µM
  menadione-induced superoxide formation on co-treatment: no significant increase of superoxide

## CO[C@@]12[C@H](COC(N)=O)C3=C(C(=O)C(C)=C(N)C3=O)N1C[C@@H]1N[C@@H]12 [mitomycin C]
[13]
  micronuclei/nuclear bud formation: high amount of nuclear bud/micronuclei formation

## COc1cccc2c1C(=O)c1c(O)c3c(c(O)c1C2=O)C[C@@](O)(C(=O)CO)C[C@@H]3O[C@H]1C[C@H](N)[C@H](O)[C@H](C)O1 [Doxorubicin, doxorubicin, reference compound]
[3]
  IC50: 240 ± 20 nM
[4]; HEK293, MTT, 72 h, n = 3, read-out: IC50 HEK293 (human, kidney)
  IC50: 160 ± 40 nM
[5]
  IC50: 100 ± 10 nM
[14]
  micronuclei/nuclear bud formation: high amount of nuclear bud/micronuclei formation
[9]
  IC50: 480 ± 130 nM
